This test concerns the target Parkin (Homo sapiens (Human), UniProt O60260). Description: Parkin activation in human primary fibroblasts (western blot). The class given is cell-based. The settings on record: for MFN1/2 degradation and pSer65-Ub levels: 5 μM before low dose CCCP (3.5 μM); for MFN1 ubiquitylation or pSer65-Ub signals, compound treatment alone: different concentrations, 2 h, absence of CCCP. On the procedure:
FIGS. 15A-15H show Parkin activation in primary fibroblasts, neuronal cells and in vitro. Positive control (PC) cells were treated with DMSO and 10 μM of CCCP. Negative control (NC) cells were treated with 3.5 μM CCCP, some cells were left untreated (−). […] Vinculin was used as loading control. […] FIG. 15C: Human fibroblasts were directly converted to neurons and treated as in FIG. 15B. […] Beta III tubulin confirmed successful conversion of fibroblasts to iNeurons. FIG. 15D: Rat PC12 cells were treated as in FIG. 15A. Western blots show enhanced ubiquitylation of MFN2 and TOM70, and robust pSer65-Ub induction similar to PC, but not NC cells. FIG. 15E: In vitro E2 discharge assay. Recombinant Parkin was pre-incubated with compound 4 or DMSO as control and was mixed to Ub-loaded UbcH7. […] Control reactions were performed without PINK1 or Parkin. FIG. 15F: In vitro assay with isolated mitochondria from untreated or CCCP-treated HeLa cells lacking Parkin. Mitochondrial preparations were mixed with recombinant Parkin, E1, UbcH7, ATP and either compound 4 or DMSO as a control and incubated for the indicated times. […] Control samples were incubated in reaction mix without Parkin. FIG. 15G: Protein melting was performed with 50 ng purified Parkin mixed with SYPRO orange and DMSO as control or 500 nM compound 4. […] FIG. 15H: Statistical analysis of three independent experiments as performed in FIG. 15G. Shown in the average value+/−SD (unpaired, two-sided t-test; *** p<0.0005).
FIG. 16A: Quantification of pSer65-Ub signal using sandwich ELISA from six independent experiments performed in human fibroblast treated as described in FIG. 15A. Shown in the average−/+SD. One-way ANOVA with Tukey's posthoc test (*** p<0.0005). FIG. 16B: Human primary fibroblasts were treated with different concentrations of all five compounds (1, 2, 3, 4, and 31) for 2 h. […] Different CCCP concentrations were used as positive control. FIG. 16C: Rat PC12 cells were pretreated with 5 μM of the compounds for 2 h and then treated with low dose of CCCP (3.5 μM). Control cells were treated with DMSO and either 10 μM CCCP (PC) or 3.5 μM (NC). Some cells received no CCCP (−). […] The PINK1/Parkin product pSer65-Ub was induced by all five compounds upon low dose treatment and in positive controls. FIG. 16D: PC12 cells were differentiated by treatment with NGF (NGF+). Some cells were left undifferentiated (NGF−). Cells were treated with 5 μM of compounds or DMSO as indicated. 2 h later, low dose CCCP (3.5 μM) was added to cells treated with test compounds. DMSO controls were either treated with 3.5 μM CCCP (NC) or 10 μM CCCP (PC). Some cells were not treated with CCCP (−). Western blots probed with antibodies against MFN1 show degradation in cells treated with compounds and in the positive control. Some degradation can also be observed in the negative control. […] Beta III tubulin was used to confirm successful differentiation. Vinculin was used as loading control.
Primary fibroblasts (Cell Applications) were cultured in fibroblast growth medium (FGM): DMEM containing 10% FBS, 1% penicillin-streptomycin and 1% non-essential amino acids. Direct conversion to neurons was performed utilizing short hairpin RNA targeting polypyrimidine-tract-binding protein (shPTB), which affects proneuronal micro-RNA circuits (Xue et al., Cell (2013) 152:82-96. Cells were seeded with 40,000 cells/mL and allowed to adhere overnight. 48 h after transduction with pLKO. 1_shPTB lentivirus, positive cells were selected with 2 μg/mL puromycin in fibroblast growth medium. On day 6 media was changed to FGM containing 10 ng/mL fibroblast growth factor (FGF, Genscript). On day 8, media was changed to differentiation media (DMEM:F12 (Invitrogen), 25 μg/mL insulin, 50 μg/mL transferrin, 0.1 μM putrescine 0.03 μM Na-selenite (all Sigma-Aldrich), and 15 ng/mL FGF) containing 5% FBS. On days 10 and 12 media was replaced with differentiation media containing reduced serum (2% FBS). […]
For orientation: A western blot detects proteins with antibodies after separation by electrophoresis.

SMILES strings stand for the structures. Entries after “also recorded” stand apart in the source; their conditions may differ.

Sequence of Parkin (O60260 whole entry): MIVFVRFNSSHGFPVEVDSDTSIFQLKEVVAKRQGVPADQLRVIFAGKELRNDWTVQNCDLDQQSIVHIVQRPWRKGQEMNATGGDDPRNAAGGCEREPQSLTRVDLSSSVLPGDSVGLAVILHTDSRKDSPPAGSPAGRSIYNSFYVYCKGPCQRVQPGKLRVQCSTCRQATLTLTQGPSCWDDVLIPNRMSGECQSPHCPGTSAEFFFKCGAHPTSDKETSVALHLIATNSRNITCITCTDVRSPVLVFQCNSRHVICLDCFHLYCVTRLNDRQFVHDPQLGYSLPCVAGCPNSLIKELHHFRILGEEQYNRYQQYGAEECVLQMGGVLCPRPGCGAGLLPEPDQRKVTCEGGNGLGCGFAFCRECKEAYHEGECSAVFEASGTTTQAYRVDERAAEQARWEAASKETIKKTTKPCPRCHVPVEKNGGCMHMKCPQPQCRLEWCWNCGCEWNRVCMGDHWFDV

With `O=C(Cn1cnc2c1CCCC2)Nc1ccc(-c2ccccc2)cc1` [Compound 1], the “MFN1/2 degradation and pSer65-Ub levels” value is “enhanced degradation of the substrates MFN1/2 and increase of pSer65-Ub levels; also recorded: strongest effects”; the “MFN1 ubiquitylation or pSer65-Ub signals, compound treatment alone” value (shortened to “MFN1 ubiquitylation or pSer65-Ub signals”) is “did not induce MFN1 ubiquitylation or pSer65-Ub signals”.

On to `CC(C)c1nccn1CC(=O)Nc1ccc(-c2ccccc2)cc1` [Compound 2], for which the “MFN1/2 degradation and pSer65-Ub levels” value was “enhanced degradation of the substrates MFN1/2 and increase of pSer65-Ub levels”; the “MFN1 ubiquitylation or pSer65-Ub signals” value is “did not induce MFN1 ubiquitylation or pSer65-Ub signals”.

As for `CC(C)(C)Sc1ccc(NC(=O)Cn2ccnc2)cc1` [Compound 3], the “MFN1/2 degradation and pSer65-Ub levels” value was “enhanced degradation of the substrates MFN1/2 and increase of pSer65-Ub levels”; the “MFN1 ubiquitylation or pSer65-Ub signals” value is given as “did not induce MFN1 ubiquitylation or pSer65-Ub signals”.

As for `O=C(Cn1ccnc1-c1ccccn1)Nc1ccc(-c2ccccc2)cc1` [Compound 4], the “MFN1/2 degradation and pSer65-Ub levels” value is “enhanced degradation of the substrates MFN1/2 and increase of pSer65-Ub levels; also recorded: strongest effects”; the “MFN1 ubiquitylation or pSer65-Ub signals” value was “did not induce MFN1 ubiquitylation or pSer65-Ub signals”. For the same compound, where the note is “5 μM for 2 h before different concentrations of CCCP”, the “mitofusin ubiquitylation/degradation and pSer65-Ub signal” value was “increased ubiquitylation/degradation of mitofusins and amplification of the pSer65-Ub signal”.

`Cc1nc2c(c(N3CCCN(Cc4ccccc4)CC3)n1)CCCC2` [Compound 31]: the “MFN1/2 degradation and pSer65-Ub levels” value is “enhanced degradation of the substrates MFN1/2 and increase of pSer65-Ub levels”; the “MFN1 ubiquitylation or pSer65-Ub signals” value is “did not induce MFN1 ubiquitylation or pSer65-Ub signals”.

These data come from patent US11401255B2, “Small molecule activators of Parkin enzyme function” (Mayo Foundation for Medical Education and Research, priority 2016, dated 2022).
